Source: patent publication US20190284148A1, “MICROBIOCIDAL OXADIAZOLE DERIVATIVES” (SYNGENTA PARTICIPATIONS AG, priority 2016, published 2019)

Key:
[1] = system: Puccinia Recondita f. sp. Tritici; assay: Puccinia recondita f. sp. tritici / wheat / leaf disc curative (brown rust); format: in vivo; conditions: foliar, 200 ppm in the applied formulation, wheat leaf segments cv. Kanzler, curative (applied 1 day after inoculation), assessed 6 to 8 days after application, read-out: disease control compared to untreated control leaf disks
Procedure: (§1) Leaf disks or leaf segments of various plant species are cut from plants grown in a greenhouse. The cut leaf disks or segments are placed in multiwell plates (24-well format) onto water agar. The leaf disks are sprayed with a test solution before (preventative) or after (curative) inoculation. Compounds to be tested are prepared as DMSO solutions (max. 10 mg/ml) which are diluted to the appropriate concentration with 0.025% Tween20 just before spraying. The inoculated leaf disks or segments are incubated under defined conditions (temperature, relative humidity, light, etc.) according to the respective test system. A single evaluation of disease level is carried out 3 to 14 days after inoculation, depending on the pathosystem. Percent disease control relative to the untreated check leaf disks or segments is then calculated.
Wheat leaf segments cv. Kanzler are placed on agar in multiwell plates (24-well format). The leaf segments are then inoculated with a spore suspension of the fungus. Plates were stored in darkness at 19° C. and 75% relative humidity. The formulated test compound diluted in water was applied 1 day after inoculation. The leaf segments were incubated at 19° C. and 75% relative humidity under a light regime of 12 hours light/12 hours darkness in a climate cabinet and the activity of a compound was assessed as percent disease control compared to untreated when an appropriate level of disease damage appears in untreated check leaf segments (6 to 8 days after application).
The following compounds at 200 ppm in the applied formulation give at least 80% disease control in this test when compared to untreated control leaf disks under the same conditions, which show extensive disease development.

[2] = system: Glomerella Lagenarium (Colletotrichum Lagenarium); assay: Glomerella lagenarium (Colletotrichum lagenarium) liquid culture / cucumber / preventative (anthracnose); format: cell-based; conditions: Colletotrichum orbiculare; 20 ppm in the applied formulation; liquid culture in PDB, 24° C., 3 to 4 days after application; read-out: disease control compared to untreated control (inhibition of growth measured photometrically)
Procedure: Mycelia fragments or conidia suspensions of a fungus prepared either freshly from liquid cultures of the fungus or from cryogenic storage, are directly mixed into nutrient broth. DMSO solutions of the test compound (max. 10 mg/ml) are diluted with 0.025% Tween20 by a factor of 50 and 10 μl of this solution is pipetted into a microtiter plate (96-well format). The nutrient broth containing the fungal spores/mycelia fragments is then added to give an end concentration of the tested compound. The test plates are incubated in the dark at 24° C. and 96% relative humidity. The inhibition of fungal growth is determined photometrically after 2 to 7 days, depending on the pathosystem, and percent antifungal activity relative to the untreated check is calculated.
Conidia of the fungus from cryogenic storage are directly mixed into nutrient broth (PDB—potato dextrose broth). After placing a (DMSO) solution of test compound into a microtiter plate (96-well format), the nutrient broth containing the fungal spores is added. The test plates are incubated at 24° C. and the inhibition of growth is measured photometrically 3 to 4 days after application.
The following compounds at 20 ppm in the applied formulation give at least 80% disease control in this test when compared to untreated control under the same conditions, which show extensive disease development.

[3] = system: Puccinia Recondita f. sp. Tritici; assay: Puccinia recondita f. sp. tritici / wheat / leaf disc preventative (brown rust); format: in vivo; conditions: foliar, 200 ppm in the applied formulation, wheat leaf segments cv. Kanzler, preventative (inoculated 1 day after application), assessed 7 to 9 days after application, read-out: disease control compared to untreated control leaf disks
Procedure: as §1, with “calculated. Wheat leaf segments cv. Kanzler were placed on agar in multiwell plates (24-well format) and sprayed with the formulated test compound diluted in water. The leaf disks were inoculated with a spore suspension of the fungus 1 day after application. The inoculated leaf segments were incubated at 19° C. and 75% relative humidity (rh) under a light regime of 12 hours light/12 hours darkness in a climate cabinet and the activity of a compound was assessed as percent disease control compared to untreated when an appropriate level of disease damage appears in untreated check leaf segments (7 to 9 days after application). The following compounds at 200 ppm in the applied formulation give at least 80% disease control in this test when compared to untreated control leaf disks under the same conditions, which show extensive disease development.” for “calculated.”

SMILES | pest or weed control at 200 ppm [1] [%] | melting point [°C] | inhibition at 20 ppm [2] [%] | pest or weed control at 200 ppm [3] [%]
CCOC(=O)Nc1ccc(-c2noc(C(F)(F)F)n2)cc1F [Compound 1.9, ethyl N-[2-fluoro-4-[5-(trifluoromethyl)-1,2,4-oxadiazol-3-yl]phenyl]carbamate] | ≥ 80 | 86 to 91 | ≥ 80 | ≥ 80
CON(C)C(=O)Nc1ccc(-c2noc(C(F)(F)F)n2)cc1C [Compound 1.10, 1-methoxy-1-methyl-3-[2-methyl-4-[5-(trifluoromethyl)-1,2,4-oxadiazol-3-yl]phenyl]urea] | ≥ 80 | 73 to 76 | ≥ 80 | ≥ 80
